{
  "source": "paper PMC7602804",
  "about": "(Nutrients, 2020)",
  "key": {"[1]": {"assay": "Caco-2 monolayers in culture inserts; transport medium (Hanks' Balanced Salt solution supplemented with 10 mM of HEPES); basolateral medium analysed", "settings": "human, up to 2.5 h"}, "[2]": {"assay": "primary porcine brain endothelial cell (PBEC) monolayers in culture inserts; transport medium (Hanks' Balanced Salt solution supplemented with 10 mM of HEPES); basolateral medium analysed", "settings": "up to 2.5 h"}, "[3]": {"tested_on": "pepsin from porcine gastric mucosa, then trypsin and chymotrypsin from a bovine pancreas and elastase", "assay": "purified milk peptide mix: pepsin in 0.15 M NaCl pH 2.5 (1:100 w/w), then trypsin, chymotrypsin (1:100 w/w) and elastase (1:500 w/w) in 50 mM ammonium bicarbonate pH 7.6", "settings": "37 °C, up to 60 min"}, "[4]": {"tested_on": "pepsin from porcine gastric mucosa, then trypsin and chymotrypsin from a bovine pancreas and elastase", "assay": "synthetic peptide: pepsin in 0.15 M NaCl pH 2.5 (1:100 w/w, 60 min), then trypsin, chymotrypsin (1:100 w/w) and elastase (1:500 w/w) in 50 mM ammonium bicarbonate pH 7.6", "settings": "37 °C, up to 270 min"}, "Caco-2 monolayers [5]": {"tested_on": "Caco-2 monolayers", "assay": "Apical to basolateral transport of milk peptides across Caco-2 monolayers (LC-MS/MS of basolateral medium)", "format": "in vitro ADME, human", "settings": "Caco-2, 3 weeks on PET inserts 0.4 μm, TEER above 400 Ω cm^2; A-B; mix of 192 purified milk peptides 0.1 mg/mL apical; HBSS + 10 mM HEPES; 2.5 h; LC-MS/MS of basolateral medium; identified in two out of three experiments", "protocol": "The human colorectal adenocarcinoma cell line, Caco-2, was obtained from DSMZ (Braunschweig, Germany). The cells were grown to 50–60% confluence in Dulbecco’s Modified Eagle Medium (DMEM) Glutamax cell culture medium, supplemented with 10% heat-inactivated fetal bovine serum, 100 units/mL of penicillin and 100 μg/mL of streptomycin (all from Invitrogen, Carlsbad, CA, USA) in a humidified 5% CO2/95% air atmosphere at 37 °C. The cells used in the experiments were between passages 30 and 40.\n(§1) The Caco-2 cells used for transport studies were seeded in polyethylene terephthalate culture inserts, with a pore size of 0.4 μm and a growth area of 0.33 cm^2 at a density of approximately 25,000 cells/insert. The Caco-2 cells were grown for three weeks on the porous membrane before they were used for transepithelial transport. The integrity of the monolayers was confirmed by measuring the TEER using a Millicell ERS-2 volt ohmmeter. Only Caco-2 monolayers with TEER values above 400 Ω cm^2 were used for the transport analysis.\n(§2) Following the TEER value measurement, the Caco-2 and PBEC monolayers were gently washed twice with phosphate-buffered saline, and the transport medium (Hanks’ Balanced Salt solution supplemented with 10 mM of HEPES) was added to the apical and basolateral compartments. The inserts were incubated for 15 min or 2.5 h with the purified milk peptides (0.1 mg/mL) or the synthetic PIGSENSEKTTMPLW peptide (2 µg/mL), after which medium from the apical and basolateral compartments were collected for liquid chromatography tandem mass spectrometry (LC-MS/MS) analysis. Inserts incubated with a medium without peptides served as the control in the transport experiments. Membrane integrity was validated by addition of D-[1-^14C]-Mannitol (3.5 µM, 56.8 mCi/mmol) (Perkin Elmer, Waltham, MA, USA) to the upper chamber of the culture inserts with or without milk peptides for 2.5 h. The passive permeability experiments were performed on four or five individual culture inserts. Basolateral samples were mixed with Ultima Gold liquid scintillation fluid (Perkin Elmer) and counted in a Tri-Carb 2810 TR scintillation counter (Perkin Elmer). The apparent permeability coefficient (Papp, cm/s) was determined as Papp = (dQ/dt)/(AC0) where dQ/dt is the steady state flux (cpm/s), A is the surface area of the cell culture insert membrane and C0 is the initial concentration in the apical compartment (cpm/mL).\nLC-MS/MS analysis was performed on a TripleTOF 6600 mass spectrometer equipped with an Exigent nanoLC 415 system (AB Sciex, Les Ulis, France). All samples were micro-purified using 3 M Empore C18 discs packed in pipette tips. The lyophilized samples were dissolved in 0.1% formic acid, injected on a trap column (2 cm × 100 µm inner diameter) and separated on an analytical column packed in-house in a pulled emitter (15 cm × 75 µm inner diameter). All columns were packed with ReproSil-Pur C18-AQ 3 µm resin (courtesy of Dr. Marisch, Ammerbuch-Entringen, Germany). Peptides were eluted directly into the mass spectrometer with a linear gradient from 5 to 35% solvent B (0.1% formic acid in acetonitrile) for 20 min with a flowrate of 250 nL/min, followed after 10 min with 100% solvent B. Data files were converted to Mascot Generic Format using the Raw Converter (version 1.1.0.18) (http://fields.scripps.edu/rawconv/) or the AB Sciex MS Data Converter beta 1.1 (AB Sciex, Les Ulis, France). The generated peak lists were searched against the Bos taurus proteome (UniProt database, https://www.uniprot.org)) using an in-house Mascot search engine (Matrix Science, London, UK). The searches were made without specifying a protease and with oxidation (Met) and phosphorylation (ST) as variable modifications. Peptide tolerance was set to 10 ppm and MS/MS tolerance was set to 0.2 Da. […]"}, "[6]": {"tested_on": "porcine brain endothelial cell (PBEC) monolayers", "assay": "Apical to basolateral transport of milk peptides across porcine brain endothelial cell (PBEC) monolayers, blood-brain barrier model", "format": "in vitro ADME", "settings": "primary PBEC on polyester inserts 0.4 μm, astrocyte conditioned medium, TEER higher than 800 Ω cm^2; A-B; mix of 192 milk peptides 0.1 mg/mL apical; HBSS + 10 mM HEPES; 2.5 h; LC-MS/MS; five independent studies; αS1 peptide 'or' its truncated peptides stated collectively", "protocol": "Capillaries were isolated from the brain cortices of domestic pigs 5–6 months old as previously described. PBECs were cultured by plating the capillaries in T75 flasks coated with collagen IV (500 µg/mL) and fibronectin (100 µg/mL) in DMEM-F12 medium, supplemented with 10% plasma-derived serum (First Link, Wolverhampton, UK), heparin (15 U), 100 units/mL of penicillin and 100 µg/mL of streptomycin (PBEC growth medium), and cultured in an incubator with humidified 5% CO2/95% air at 37 °C. Puromycin (4 µg/mL) was added to the growth medium for the first three days to obtain a pure culture of PBECs.\nAstrocyte conditioned medium was collected every third day from primary rat astrocytes, sterile filtered and frozen until use. Isolation of primary rat astrocytes and preparation of astrocyte conditioned media were carried out as described in [20].\n(§3) PBECs were grown until 70–80% confluency as described above and then passaged onto polyester culture inserts with a pore size of 0.4 μm and a growth area of 1.12 cm^2 (Costar, Corning, NY, USA) at a density of 1.1 × 10^5 cells/cm^2 in the PBEC growth medium. In the basolateral chamber, the medium consisted of 1 mL of PBEC growth medium and 0.5 mL of astrocyte conditioned medium. The medium was supplemented with differentiation factors: 550 nM of hydrocortisone, 250 μM of 8-(4-chlorophenylthio)adenosine-3′,5′-cyclic monophosphate (cAMP) and 17.5 μM of RO-201724 two days after seeding. The next day, the integrity of the PBEC monolayer was confirmed by measuring the TEER. Only PBEC monolayers with TEER values higher than 800 Ω cm^2 were used for the transport analysis.\nas §2\nLC-MS/MS analysis was performed on a TripleTOF 6600 mass spectrometer equipped with an Exigent nanoLC 415 system (AB Sciex, Les Ulis, France). All samples were micro-purified using 3 M Empore C18 discs packed in pipette tips. The lyophilized samples were dissolved in 0.1% formic acid, injected on a trap column (2 cm × 100 µm inner diameter) and separated on an analytical column packed in-house in a pulled emitter (15 cm × 75 µm inner diameter). All columns were packed with ReproSil-Pur C18-AQ 3 µm resin (courtesy of Dr. Marisch, Ammerbuch-Entringen, Germany). […]"}, "Caco-2 monolayers [7]": {"tested_on": "Caco-2 monolayers", "parameters": "method as in PMID 20397193, PMID 23561097", "settings": "Caco-2 monolayer; cited from earlier work"}, "Caco-2 monolayer": {"tested_on": "Caco-2 monolayer", "assay": "Passive permeability (Papp) of mannitol across Caco-2 monolayers, membrane integrity", "format": "in vitro ADME, human", "settings": "D-[1-14C]-Mannitol 3.5 µM, 56.8 mCi/mmol, apical, with or without milk peptides; A-B; 2.5 h; HBSS + 10 mM HEPES; liquid scintillation counting; mean ± standard deviation of four or five inserts", "protocol": "as §1\n(§4) Following the TEER value measurement, the Caco-2 and PBEC monolayers were gently washed twice with phosphate-buffered saline, and the transport medium (Hanks’ Balanced Salt solution supplemented with 10 mM of HEPES) was added to the apical and basolateral compartments. […] Basolateral samples were mixed with Ultima Gold liquid scintillation fluid (Perkin Elmer) and counted in a Tri-Carb 2810 TR scintillation counter (Perkin Elmer). The apparent permeability coefficient (Papp, cm/s) was determined as Papp = (dQ/dt)/(AC0) where dQ/dt is the steady state flux (cpm/s), A is the surface area of the cell culture insert membrane and C0 is the initial concentration in the apical compartment (cpm/mL). […]"}, "[8]": {"tested_on": "PBEC monolayer (BBB model)", "assay": "Passive permeability (Papp) of mannitol across PBEC monolayers, membrane integrity", "format": "in vitro ADME, porcine", "settings": "D-[1-14C]-Mannitol 3.5 µM, 56.8 mCi/mmol, apical, with or without milk peptides; A-B; 2.5 h; HBSS + 10 mM HEPES; liquid scintillation counting; mean ± standard deviation of four or five inserts", "protocol": "as §3, with “Only PBEC monolayers with TEER values higher than 800 Ω cm^2 were used for the transport analysis.” left out\nas §4"}, "[9]": {"tested_on": "angiotensin-converting enzyme (ACE)", "settings": "potential anti-hypertensive peptides; cited from earlier work", "from_the_text": "The ACE-inhibitory ability is presumably mediated through the derived fragments TTMPLW and KTTMP [36, 37]. Thus, the transport of this peptide across physiological barriers could influence the regulation of arterial blood pressure. Furthermore, ACE is present in the brain and plays a key role in high salt induced sympatho-excitation, hypertension, neuroprotection, cognition and cerebr ..."}},
  "note": "“Also recorded” adds a separate entry of the source. No end group written: not given here.",
  "data": [
    {"compound": "PIGSENSEKTTMPLW", "values": [
      {"measurement": "fragment found", "setting": "[1]", "result": "PIGSENSEKTTMP (Mox), 2.5 h; also recorded: PIGSENSEKTT, 2.5 h"},
      {"measurement": "fragment found", "setting": "[2]", "result": "PIGSENSEKTTMP (Mox), 2.5 h; also recorded: PIGSENSEKTT, 2.5 h"},
      {"measurement": "not cleaved", "setting": "[3]", "result": "peptide ion still observed after pepsin and pancreatic enzyme digestion"},
      {"measurement": "not cleaved", "setting": "[4]", "result": "ion corresponding to the peptide observed even after 270 min of digestion"}
    ]},
    {"compound": "EPVLGPVRGPFPIIV [EPVLGPVRGPFPIIV]", "values": [
      {"measurement": "Peptide identified in the basolateral chamber of Caco-2 monolayers (transported)", "setting": "Caco-2 monolayers [5]", "result": "not transported across the Caco-2 monolayers"},
      {"measurement": "Peptide identified in the basal compartment (brain side) of the PBEC BBB model (transported)", "setting": "[6]", "result": "identified in the basal compartment of the BBB model"},
      {"measurement": "Crossing of in vitro intestinal barrier models in other studies", "setting": "Caco-2 monolayers [7]", "result": "shown to cross over in vitro intestinal barrier models"}
    ]},
    {"compound": "OC[C@@H](O)[C@@H](O)[C@H](O)[C@H](O)CO", "note": "[D-[1-^14C]-Mannitol]", "values": [
      {"measurement": "Apparent permeability coefficient (Papp) of the Caco-2 monolayer", "setting": "Caco-2 monolayer", "result": "9.45 ± 2 × 10^−7 cm s^−1"},
      {"measurement": "Papp for the BBB (PBEC monolayer)", "setting": "[8]", "result": "1.09 ± 0.14 × 10^−6 cm s^−1"}
    ]},
    {"compound": "IGSENSEKTTMP [truncated derivative of the αS1-casein peptide …]", "values": [
      {"measurement": "Peptide identified in the basal compartment (brain side) of the PBEC BBB model (transported)", "setting": "[6]", "result": "identified in all experiments"},
      {"measurement": "Inhibition of the activity of angiotensin-converting enzyme (ACE)", "setting": "[9]", "result": "can inhibit the activity of angiotensin-converting enzyme"}
    ]}
  ]
}
